Results from patent US20230077723A1, “N-SUBSTITUTED-3,4-(FUSED 5-RING)-5-PHENYL-PYRROLIDINE-2-ONE COMPOUNDS AS INHIBITORS OF ISOQC AND/OR QC ENZYME” (Scenic Immunology B.V., priority 2019, published 2023).

Key:
[1] = system: pyroglutamylated CD47 (pE-CD47) in KBM7 cells; assay: Assay 6 - cell-based potency assay (pE-CD47 CC2C6 staining vs total CD47); design: species or system human; conditions: Homo sapiens, KBM-7, 72 h, CC2C6 signal, read-out: Cell Pot. Assay No. 6
Summary of the method: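 KBM7 cells received a 10-point 2-fold compound series for 72 h at 37 °C, then were stained with anti-CD47 clones 2D3 (total) and CC2C6 (pyroglutamylated) and analysed by flow cytometry on DAPI-negative cells. MFI was scaled between wild-type and CD47- or QPCTL-knockout cells; IC50 came from 3-parameter logistic fit of CC2C6 signal, top fixed at 1.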

[2] = biological target: T1, Recombinant QC enzyme (residues 33-361 of uniprot ID Q16769) (Homo sapiens, UniProt Q16769); assay: Assay 5 - QC potency, fluorescent enzymatic assay; assay type: biochemical; conditions: fluorescent read-out; read-out: QC Pot. Assay No. 5
T1 construct: bacterial expression of residues 33-361 of uniprot ID Q16769; His tag (cleaved yes); made in house; host or cells: bacterial expression (pET32a)
T1 sequence (Q16769 33-361): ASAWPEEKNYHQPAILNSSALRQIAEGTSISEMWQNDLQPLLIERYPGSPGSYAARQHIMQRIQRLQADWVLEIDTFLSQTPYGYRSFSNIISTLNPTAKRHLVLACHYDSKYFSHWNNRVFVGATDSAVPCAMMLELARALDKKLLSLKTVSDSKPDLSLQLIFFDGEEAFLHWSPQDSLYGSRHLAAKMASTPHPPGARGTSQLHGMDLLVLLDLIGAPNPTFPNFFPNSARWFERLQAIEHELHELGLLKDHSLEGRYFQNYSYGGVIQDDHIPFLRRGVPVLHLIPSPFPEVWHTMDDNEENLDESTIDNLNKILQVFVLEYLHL
Description: Recombinant QC enzyme was produced by bacterial expression of residues 33-361 of uniprot ID Q16769, fused to a His tag, codon optimized and cloned into the pET32a plasmid backbone. After scale-up, expression and lysis, protein was purified by Ni-NTA IMAC, dialysed in the presence of Factor Xa, further purified by Ni-NTA reverse IMAC and finally filtrated for size on a Superdex 200 16/60 column. Final protein was concentrated using a spin concentrator at 10 kDa molecular weight cutoff and formulated in 150 mM NaCl, 50 mM Tris-HCl, 50% Glycerol, pH 8.0.
(§1) Pyroglutamylation was measured by conversion of glutamine-4-amino-7-methylcoumarine (H-Gln-AMC, Bachem) to pyroglutamyl-AMC, which is subsequently a specific substrate for pyroglutamylaminopeptidase (pGAPase, Qiagen), releasing free AMC which can be fluorescently detected. For a typical inhibition assay, 7.5 μL aliquots of threefold dilutions of test compound in 50 mM Tris pH8 buffer were plated in 384-well plates. 15 μL 20 μM h-Gln-AMC (diluted from a 40 mM stock dissolved in 25 mM HEPES using 50 mM Tris-HCl pH 8.0) was added to each well. Finally, 7.5 μL, 3 ng/μL recombinant QC enzyme was added and the reaction mixture was incubated for 1 hour at 37° C. A 5 minute incubation at 98° C. was then performed to denature the QC enzyme and stop the reaction.
(§2) To detect the amount of pyroglutamyl-AMC formed, a 0.125 U/mL pGAPase enzyme diluted in 50 mM Tris-HCl pH 8.0 containing 10 mM dithiothreitol (DTT) solution was prepared. 25 μL of the pyroglutamylation reaction mixture was transferred into an empty plate and to that, 25 μL of the pGAPase enzyme solution was added. Plates were then incubated for 25 minutes at room temperature before fluorescence readings were taken on an Envision2 plate reader with excitation set at 380 nm and emission at 450 nm.
(§3) DMSO concentrations during the assay never exceeded 1% and activities were compared to controls containing only the same amount of DMSO and no test compound. Controls were taken along containing pyroglutamylated-AMC (Bachem, dissolved at 10 mM in DMSO) instead of H-Gln-AMC to control for pGAPase inhibition.
IC50 values are calculated using non-linear regression analysis with GraphPad Prism software.

human isoQC (S53-L382) = biological target: T2, human isoQC (S53-L382) (Homo sapiens, UniProt Q9NXS2); assay: Assay 3 - isoQC potency, fluorescent enzymatic assay; assay type: biochemical; conditions: fluorescent read-out; read-out: isoQc Pot. Assay No. 3
T2 construct: enzymatically active region of human isoQC (S53-L382; see, e.g., Huang et al., 2011); GST-Enterokinase site (N, cleaved yes); made in house; host or cells: E. coli
T2 sequence (Q9NXS2 53-382): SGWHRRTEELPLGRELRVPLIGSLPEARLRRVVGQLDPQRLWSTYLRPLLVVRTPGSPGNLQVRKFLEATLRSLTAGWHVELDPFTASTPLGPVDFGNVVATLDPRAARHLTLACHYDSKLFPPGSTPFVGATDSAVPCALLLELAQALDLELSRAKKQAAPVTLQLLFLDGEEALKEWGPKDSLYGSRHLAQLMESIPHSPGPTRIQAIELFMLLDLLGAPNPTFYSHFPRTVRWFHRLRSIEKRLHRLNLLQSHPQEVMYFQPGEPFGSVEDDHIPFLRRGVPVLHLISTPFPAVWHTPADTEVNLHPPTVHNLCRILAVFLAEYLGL
Description: For this assay specifically, isoQC production was performed slightly different than described in the general methods: The Golgi luminal, enzymatically active region of human isoQC (S53-L382; see, e.g., Huang et al., 2011) was obtained by expression in E. coli of an N-terminally GST Enterokinase and C-terminally 6×His tagged construct in the pET41(+) vector and subsequent purification using Ni-NTA IMAC. Enterokinase digestion ensued, followed by another Ni-NTA IMAC purification, Superdex75 based size exclusion and finally a spin concentration using a 10 kDa molecular weight cutoff. The final protein is formulated in 50 mM Tris-HCl, 150 mM NaCl, 50% Glycerol, pH 7.8.
as §1, with “isoQC” for “QC”
as §2
as §3, with “inhibition. IC50 values are calculated using non-linear regression analysis with GraphPad Prism software.” for “inhibition.”

Row | IC50 [1] | IC50 [2] | IC50 (human isoQC (S53-L382)) | SMILES
1 | < 1000 nM | 25 to 100 nM | 25 to 100 nM | Cc1[nH]nc2c1C(c1ccc(N3CCC(F)(F)C3)c(F)c1F)N(c1ccc3[nH]cnc3c1)C2=O (centres unmarked) [FRPPO-161]
2 | < 1000 nM | 100 to 5000 nM | 100 to 5000 nM | Cc1nn(C)c2c1C(c1ccc(-c3cnc(C(F)(F)F)s3)cc1F)N(c1ccc3[nH]cnc3c1)C2=O (centres unmarked) [FRPPO-164]
3 | < 1000 nM | 100 to 5000 nM | 25 to 100 nM | Cc1nn(C)c2c1C(c1ccc(-c3cnn(C(F)(F)F)c3)cc1F)N(c1ccc3[nH]cnc3c1)C2=O (centres unmarked) [FRPPO-165]
4 | 1000 to 5000 nM | 100 to 5000 nM | 100 to 5000 nM | Cc1nn(C)c2c1C(c1ccc(-n3cc(C(F)(F)F)cn3)cc1F)N(c1ccc3[nH]cnc3c1)C2=O (centres unmarked) [FRPPO-166]
5 |  | 100 to 5000 nM | 100 to 5000 nM | O=C1c2[nH]ncc2C(c2ccc(N3CCC(F)(F)C3)cc2F)N1c1ccc2[nH]cnc2c1 (centres unmarked) [FRPPO-171]
6 |  | 25 to 100 nM | 25 to 100 nM | COc1n[nH]c2c1C(c1ccc(N3CCC(F)(F)C3)cc1F)N(c1ccc3[nH]cnc3c1)C2=O (centres unmarked) [FRPPO-173]
7 |  | 100 to 5000 nM | 25 to 100 nM | Cc1noc2c1C(c1ccc(-c3cnn(C(F)(F)F)c3)cc1F)N(c1ccc3[nH]cnc3c1)C2=O (centres unmarked) [FRPPO-176]
8 |  | 25 to 100 nM | < 25 nM | Cc1onc2c1C(c1ccc(-c3cnn(C(F)(F)F)c3)cc1F)N(c1ccc3[nH]cnc3c1)C2=O (centres unmarked) [FRPPO-177]
